Columns and labels:
[1] = tested on: subcutaneously implanted H69 human lung cancer; assay: Ex vivo biodistribution by fiber-optic spectrofluorimetry (FOS) in tissues of mice bearing H69 tumors; conditions: for Fluorescence intensity (a.u.), Kidney / Fluorescence intensity (a.u.), Liver / Fluorescence intensity (a.u.), Lung / Fluorescence intensity (a.u.), Skin / Fluorescence intensity (a.u.), Spleen / Fluorescence intensity (a.u.), Tumor / Fluorescence intensity (a.u.), Pancreas: ex vivo, 24 hours after i.v. administration, FOS
From the text: An argon ion laser (Melles Griot, 43 series) was coupled to a spectrofluorophotometer (Shimadzu, model RF-5301PC) using a bifurcated fiber bundle (Oriel, Stratford, Conn., model 77533). Laser light (488 nm) was passed via one leg of the fiber bundle, the common end tip of the bundle was fixed at a distance of 1 mm from a tissue sample, while the end tip of the second leg was mounted in front of the entrance slit of the spectrofluorophotometer. Laser irradiation from the fiber was set to 5 mW, as measured with a laser power meter (Laserstar, Ophir, Israel). An average of three recordings was used for each data point.
For control, one mouse was injected with fluorescein.
Fluorescence measurements were performed: • 1. […] Ex vivo 24 hours post injection using FOS. • 3.

SST-R2 and SST-R5 = conditions: cited from earlier work
hSST-R4 = hSST-R4 (Homo sapiens, UniProt P31391); conditions: cited from earlier work
hSST-R2 = molecular target: T1, hSST-R2 (Homo sapiens, UniProt P30874); assay: Inhibition of 125I-Tyr11-SRIF (SRIF-14) binding to membranes of CHO cells expressing cloned human SST-R2; conditions: Table 2; affinity for hSST-R2, cloned human receptor in CHO cells
T1 construct: expressed in transfected cells
Protocol: The SST analogs were tested for their potency in inhibition of the binding of ^125I-Tyr^11-SRIF (based on the method described by Raynor et. al., Molecular Pharmacology 43: 838, 1993) to membrane preparations expressing transmembrane SST receptors (SST-R1, 2, 3, 4 or 5). The receptor preparations used for these tests were either from the cloned human receptors selectively and stably expressed in Chinese Hamster Ovary (CHO) cells or from cell lines naturally expressing the SST-Rs. Typically, cell membranes were homogenized in Tris buffer in the presence of protease inhibitors and incubated for 30-40 minutes with ^125I-Tyr^11-SRIF with different concentrations of the tested sample. The binding reactions were filtered, the filters were washed and the bound radioactivity was counted in […] after addition of scintillation solution. Non specific binding was defined as the radioactivity remaining bound in the presence of 1 μM unlabeled SRIF-14.
The receptor membrane preparations used for these tests were from the cloned human receptors selectively and stably expressed in CHO cells and the radiolabelled analog used was (3-[^125]tyrosyl^11)SRIF-14. Table 2 above describes the results of the binding assays of selected analogs to the human cloned SST-R2.
The compounds were tested at a concentration of 10 nM, for SRIF-14 displacement on hSST-R2 expressed cells.

[2] = tested on: subcutaneously implanted H69 human lung cancer; conditions: mouse, iv
Protocol: Balb/c nude mice xenografts inoculated subcutaneously with the human small cell lung cancer cell line, H69.
Hundred μl of each agent (1 mM stock) were dissolved in 0.5 ml of saline and injected intravenously. For control, one mouse was injected with fluorescein.
In vivo during 24 hours after agent administrations using point (˜1 mm^2 area) measurements by fiber-optic spectroscopic system (FOS). • 2. Ex vivo 24 hours post injection using FOS. • 3.

T1 sequence (P30874 whole entry): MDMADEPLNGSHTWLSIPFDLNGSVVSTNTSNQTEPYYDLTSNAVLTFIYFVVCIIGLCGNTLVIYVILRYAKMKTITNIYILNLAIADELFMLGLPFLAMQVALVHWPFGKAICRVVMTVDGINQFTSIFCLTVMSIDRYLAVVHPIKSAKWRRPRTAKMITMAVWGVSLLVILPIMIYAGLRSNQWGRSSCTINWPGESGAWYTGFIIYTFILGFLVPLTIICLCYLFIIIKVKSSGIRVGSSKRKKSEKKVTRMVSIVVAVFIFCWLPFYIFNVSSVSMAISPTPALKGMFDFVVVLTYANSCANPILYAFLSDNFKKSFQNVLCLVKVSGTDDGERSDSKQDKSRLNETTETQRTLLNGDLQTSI
Sequence of hSST-R4 (P31391 whole entry): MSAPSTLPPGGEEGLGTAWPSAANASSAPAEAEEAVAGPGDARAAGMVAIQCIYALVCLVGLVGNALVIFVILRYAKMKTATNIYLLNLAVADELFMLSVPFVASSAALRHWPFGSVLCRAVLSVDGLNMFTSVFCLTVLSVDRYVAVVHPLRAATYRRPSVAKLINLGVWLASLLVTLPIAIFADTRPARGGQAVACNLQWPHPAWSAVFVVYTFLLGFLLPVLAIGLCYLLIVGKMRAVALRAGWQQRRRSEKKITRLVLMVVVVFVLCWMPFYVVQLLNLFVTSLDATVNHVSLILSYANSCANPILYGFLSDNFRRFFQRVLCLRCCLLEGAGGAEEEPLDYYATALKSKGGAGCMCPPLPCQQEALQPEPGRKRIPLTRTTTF

Row | Fluorescence intensity (a.u.), Kidney [1] [a.u.] | Fluorescence intensity (a.u.), Liver [1] [a.u.] | Fluorescence intensity (a.u.), Lung [1] [a.u.] | Fluorescence intensity (a.u.), Skin [1] [a.u.] | Fluorescence intensity (a.u.), Spleen [1] [a.u.] | Fluorescence intensity (a.u.), Tumor [1] [a.u.] | Fluorescence intensity (a.u.), Pancreas [1] [a.u.] | IC50 (hSST-R2) [nM] | tumor fluorescence in ex vivo spectral images [2] | Molecule | SST receptor subtype selectivity (SST-R2 and SST-R5) | affinity to hSST-R4 (hSST-R4) | tissue accumulation / specificity to the tumor in words ([1]; mouse, in vivo) | fluorescence in normal organs in ex vivo spectral images [2]
1 | 20 ± 3 | 12 ± 2 | 40 ± 6 | 120 ± 18 | 4 ± 1 | 110 ± 17 |  |  |  | C[C@@H](O)[C@@H]1NC(=O)[C@H](CCCCN)NC(=O)[C@@H](Cc2c[nH]c3ccccc23)NC(=O)[C@H](Cc2c[nH]c3ccccc23)NC(=O)[C@H](Cc2ccccc2)NC(=O)CN(C(=O)[C@@H](Cc2ccccc2)NC(=O)CCNC(=O)c2ccc3c(c2)C(=O)OC32c3ccc(O)cc3Oc3cc(O)ccc32)CCSSCCN(CC(N)=O)C(=O)[C@H](Cc2ccccc2)NC1=O [Compound 64, 5- and 6-carboxyfluorescein-βAla-DPhe-GlyS2*-Phe-Trp-DTrp-Lys-Thr-Phe-GlyS2*-NH2] |  |  |  | 
2 | 15 ± 6 | 10 ± 5 | 25 ± 8 | 90 ± 20 | 7 ± 2 | 50 ± 20 | 16 ± 5 |  |  | C[C@@H](O)[C@@H]1NC(=O)[C@H](CCCCN)NC(=O)[C@@H](Cc2c[nH]c3ccccc23)NC(=O)[C@H](Cc2c[nH]c3ccccc23)NC(=O)[C@H](Cc2ccccc2)NC(=O)CN(C(=O)CCCNC(=O)c2ccc3c(c2)C(=O)OC32c3ccc(O)cc3Oc3cc(O)ccc32)CCSSCCN(CC(N)=O)C(=O)[C@H](Cc2ccccc2)NC1=O [Compound 48, 5- and 6-carboxyfluorescein-GABA-GlyS2*-Phe-Trp-DTrp-Lys-Thr-Phe-GlyS2*-NH2] |  |  |  | 
3 | 32 ± 5 | 17 ± 3 | 37 ± 6 | 120 ± 18 | 4 ± 1 | 106 ± 16 |  |  | high and selective fluorescence | C[C@@H](O)[C@@H]1NC(=O)[C@H](CCCCN)NC(=O)[C@@H](Cc2c[nH]c3ccccc23)NC(=O)[C@H](Cc2c[nH]c3ccccc23)NC(=O)[C@H](Cc2ccccc2)NC(=O)CN(C(=O)[C@@H](Cc2ccccc2)NC(=O)CCNC(=S)Nc2ccc3c(c2)C(=O)OC32c3ccc(O)cc3Oc3cc(O)ccc32)CCSSCCN(CC(N)=O)C(=O)[C@H](Cc2ccccc2)NC1=O [Compound 62, 5-(aminothionyl)fluorescein-βAla-DPhe-GlyS2*-Phe-Trp-DTrp-Lys-Thr-Phe-GlyS2*-NH2] |  |  |  | no (lungs and kidney) or little (dermis) fluorescence

More lines, now with the values behind:

Row | Molecule | Fluorescence intensity (a.u.), Kidney [1] [a.u.] | Fluorescence intensity (a.u.), Liver [1] [a.u.] | Fluorescence intensity (a.u.), Lung [1] [a.u.] | Fluorescence intensity (a.u.), Skin [1] [a.u.] | Fluorescence intensity (a.u.), Spleen [1] [a.u.] | Fluorescence intensity (a.u.), Tumor [1] [a.u.] | Fluorescence intensity (a.u.), Pancreas [1] [a.u.] | IC50 (hSST-R2) [nM] | tumor fluorescence in ex vivo spectral images [2] | SST receptor subtype selectivity (SST-R2 and SST-R5) | affinity to hSST-R4 (hSST-R4) | tissue accumulation / specificity to the tumor in words ([1]; mouse, in vivo) | fluorescence in normal organs in ex vivo spectral images [2]
4 | GABA*-Phe-Trp-DTrp-Lys-Thr-Phe-GlyC3*-NH2 (XFWWKTFG; not fully specified; backbone cyclized; GABA; C-terminal amide) [PTR 3173] |  |  |  |  |  |  |  |  |  | selective for SST-R2 and SST-R5 | moderate affinity |  | 
5 | C[C@@H](O)[C@@H]1NC(=O)[C@H](CCCCN)NC(=O)[C@@H](Cc2c[nH]c3ccccc23)NC(=O)[C@H](Cc2c[nH]c3ccccc23)NC(=O)[C@H](Cc2ccccc2)NC(=O)CN(C(=O)[C@@H](Cc2ccccc2)NC(=O)CCCCNC(=S)Nc2ccc3c(c2)C(=O)OC32c3ccc(O)cc3Oc3cc(O)ccc32)CCSSCCN(CC(N)=O)C(=O)[C@H](Cc2ccccc2)NC1=O [Compound 70, 5-(aminothionyl)fluorescein-aminopentanoyl-DPhe-GlyS2*-Phe-Trp-DTrp-Lys-Thr-Phe-GlyS2*-NH2] | 18 ± 3 | 5 ± 1 | 27 ± 4 | 116 ± 17 | 2 ± 0.3 | 122 ± 18 | 10 ± 2 |  |  |  |  |  | 
6 | C[C@@H](O)[C@@H]1NC(=O)[C@H](CCCCN)NC(=O)[C@@H](Cc2c[nH]c3ccccc23)NC(=O)[C@H](Cc2c[nH]c3ccccc23)NC(=O)[C@H](Cc2ccccc2)NC(=O)[C@@H](NC(=O)[C@@H](Cc2ccccc2)NC(=O)CCCNC(=S)Nc2ccc3c(c2)C(=O)OC32c3ccc(O)cc3Oc3cc(O)ccc32)CSSCCN(CC(N)=O)C(=O)[C@H](Cc2ccccc2)NC1=O [Compound 86, 5-(aminothionyl)fluorescein-GABA-DPhe-Cys*-Phe-Trp-DTrp-Lys-Thr-Phe-GlyS2*-NH2] | 23 ± 5 | 13 ± 3 | 70 ± 14 | 65 ± 13 | 7 ± 1.4 | 626 ± 55 | 22 ± 6 | 1.7 | high and selective tumor fluorescence |  |  | particularly high specificity to the tumor | no fluorescence in normal organs

— patent US7700717B2, “Photo-active backbone cyclized somatostatin analogs for photodynamic therapy and imaging” (DeveloGen Israel Ltd., priority 2002, dated 2010)
